# Source: PMC5601486, “Identification of 4-phenylquinolin-2(1H)-one as a specific allosteric inhibitor of Akt” (Scientific Reports, 2017)
# Tests used:
# [1] = test system: FoxO1 phosphorylation; test: Western blot of Akt downstream signaling; type: cell-based, Mouse; conditions: Neuro 2A cells, dose-dependent
# Procedure: (§1) Neuro 2A cells were seeded in 12-well plates in DMEM containing 5% FBS for 24 hr.
# (§2) After overnight serum starvation (in 0% FBS DMEM), cells were incubated for 30 min at 37 °C with G7 or LY294002 or Torin 1 (Sigma Aldrich) at various concentrations, or DMSO control. IGF-1 was added to each well at a final concentration of 100 ng/mL. After 30-min incubation cells were washed with cold PBS and lysed with 50 µL lysis buffer containing 1% Triton X-100 and protease/phosphatase inhibitors (Cell Signaling Technology) or RIPA buffer (Santa Cruz Biotech). Samples were electrophoresed in 4–12% Bis-Tris gels (Life Technologies) at 150 V using MOPS SDS running buffer. Proteins were transferred electrophoretically to a PVDF or nitrocellulose membrane. For detection of cleaved […]
# (§3) caspase 3 a Trans-Blot Turbo Transfer System (Bio-Rad, 25 V for 25 min) with PVDF membrane were used. […]
# (§4) anti- GAPDH (14C10) antibody (#2118) (all antibodies were from Cell Signaling Technology unless indicated, 1:1000 dilution was used) at 4°C overnight, washed three times with TBS-T, then incubated with peroxidase-conjugated secondary antibody (Sigma-Aldrich) for 1 hr at room temperature. […] Band intensity was quantitated using Kodak 1D imaging analysis software. […]
# [2] = test system: GSK-3β phosphorylation; test: Western blot of Akt downstream signaling; type: cell-based, Mouse; conditions: Neuro 2A cells, dose-dependent
# Procedure: as §1, §2, §3, §4
# [3] = test system: NIH/3T3 cells; test: MTS cell proliferation/viability assay; type: cell-based; conditions: no longer proliferating, in comparison to LY or Torin 1
# Procedure: Neuro 2A cells or NIH/3T3 cells (ATCC) were seeded at various confluency in a 96-well plate in 100 µL DMEM containing 5% FBS or 10% FBS with 1% penicillin streptomucin, respectively, at 37 °C in a 5% CO2 and 95% humidity incubator for 18 hr. To each well 1 µL inhibitor with various concentrations or DMSO was added. The final concentrations of the tested inhibitors were 0, 5, 10, 20, 40 and 80 µM for G7 and LY, and 0, 5, 10, 20, 40 and 80 nM for Torin1, based on their respective IC50 values (~µM for G7 and LY and ~ nM for Torin 1). After 24 hr, 20 µL of CellTiter 96® AQueous One Solution Reagent (Promega) were added. The plate was placed in the incubator for 2 h and absorbance at 490 nm was measured with a Synergy HT Microplate Reader (Bio-Tek).
# [4] = test system: T1, PRP4; test: KINOMEscan; type: binding, human; conditions: 50000 nM
# T1 construct: purchased DiscoveRx KINOMEscan
# [5] = test system: BMPR1A; test: KINOMEscan; conditions: 50000 nM
# Procedure: KINOMEscan™ selectivity screen
# (§5) The assay was perfor med at DiscoveRx Corporation according the methods published previously5. Briefly, Kinase-tagged T7 phage strains were grown in parallel in an E. coli host derived from the BL21 strain. E. coli were grown to log-phase and infected with T7 phage from a frozen stock and incubated with shaking at 32°C until lysis (90-150 minutes). The kinases were produced in HEK-293 cells and subsequently tagged with DNA for qPCR detection. Streptavidin-coated magnetic beads were treated with biotinylated small molecule ligands to generate affinity resins for kinase
# (§6) inhibitor or DMSO control was performed in polypropylene 384-well plates for 1 hr at room temperature. After wash with PBS buffer containing 0.05% Tween 20, the beads were incubated in elution buffer (PBS containing 0.05 % Tween 20 and 0.5 μM non-biotinylated affinity ligand) for 30 minutes at room temperature. The kinase concentration in the eluates was measured by qPCR.
# [6] = test system: MYLK2; test: KINOMEscan; conditions: 50000 nM
# Procedure: KINOMEscan™ selectivity screen
# as §5, §6
# [7] = test system: PRKG2; test: KINOMEscan; conditions: 50000 nM
# Procedure: KINOMEscan™ selectivity screen
# as §5, §6
# [8] = test system: ERBB2; test: KINOMEscan; conditions: 50000 nM
# Procedure: KINOMEscan™ selectivity screen
# as §5, §6
# [9] = test system: HIPK4; test: KINOMEscan; conditions: 50000 nM
# Procedure: KINOMEscan™ selectivity screen
# as §5, §6
# [10] = test system: PCTK3; test: KINOMEscan; conditions: 50000 nM
# Procedure: KINOMEscan™ selectivity screen
# as §5, §6
# [11] = test system: CLK3; test: KINOMEscan; conditions: 50000 nM
# Procedure: KINOMEscan™ selectivity screen
# (§7) Briefly, Kinase-tagged T7 phage strains were grown in parallel in an E. coli host derived from the BL21 strain. E. coli were grown to log-phase and infected with T7 phage from a frozen stock and incubated with shaking at 32°C until lysis (90-150 minutes). The kinases were produced in HEK-293 cells and subsequently tagged with DNA for qPCR detection. Streptavidin-coated magnetic beads were treated with biotinylated small molecule ligands to generate affinity resins for kinase
# as §6
# [12] = test system: STK35; test: KINOMEscan; conditions: 50000 nM
# Procedure: KINOMEscan™ selectivity screen
# as §7, §6
# [13] = test system: JAK1(JH1domain-catalytic); test: KINOMEscan; conditions: 50000 nM
# Procedure: KINOMEscan™ selectivity screen
# as §5, §6
# [14] = test system: CAMK2G; test: KINOMEscan; conditions: 50000 nM
# Procedure: KINOMEscan™ selectivity screen
# as §5, §6
# [15] = test system: CSNK1A1L; test: KINOMEscan; conditions: 50000 nM
# Procedure: KINOMEscan™ selectivity screen
# as §5, §6
# [16] = test system: PAK3; test: KINOMEscan; conditions: 50000 nM
# Procedure: KINOMEscan™ selectivity screen
# as §5, §6
# [17] = test system: PLK4; test: KINOMEscan; conditions: 50000 nM
# Procedure: KINOMEscan™ selectivity screen
# as §5, §6
# [18] = test system: MLCK; test: KINOMEscan; conditions: 50000 nM
# Procedure: KINOMEscan™ selectivity screen
# as §5, §6
# [19] = test system: PIKFYVE; test: KINOMEscan; conditions: 50000 nM
# Procedure: KINOMEscan™ selectivity screen
# as §7, §6
# [20] = test system: EGFR(L861Q); test: KINOMEscan; conditions: 50000 nM
# Procedure: KINOMEscan™ selectivity screen
# as §7, §6
# [21] = test system: RET(M918T); test: KINOMEscan; conditions: 50000 nM
# Procedure: KINOMEscan™ selectivity screen
# as §5, §6
# [22] = test system: PIK3CB; test: KINOMEscan; conditions: 50000 nM
# Procedure: KINOMEscan™ selectivity screen
# as §7, §6
# [23] = test system: JNK2; test: KINOMEscan; conditions: 50000 nM
# Procedure: KINOMEscan™ selectivity screen
# as §5, §6
# [24] = test system: DRAK1; test: KINOMEscan; conditions: 50000 nM
# Procedure: KINOMEscan™ selectivity screen
# as §7, §6
# [25] = test system: HIPK3; test: KINOMEscan; conditions: 50000 nM
# Procedure: KINOMEscan™ selectivity screen
# as §7, §6
# [26] = test system: ABL1(F317L)-phosphorylated; test: KINOMEscan; conditions: 50000 nM
# Procedure: KINOMEscan™ selectivity screen
# as §5, §6
# [27] = test system: RPS6KA4(Kin.Dom.1-N-terminal); test: KINOMEscan; conditions: 50000 nM
# Procedure: KINOMEscan™ selectivity screen
# as §7, §6
# [28] = test system: ARK5; test: KINOMEscan; conditions: 50000 nM
# Procedure: KINOMEscan™ selectivity screen
# as §7, §6
# [29] = test system: DYRK1A; test: KINOMEscan; conditions: 50000 nM
# Procedure: KINOMEscan™ selectivity screen
# as §5, §6
# [30] = test system: RET; test: KINOMEscan; conditions: 50000 nM
# Procedure: KINOMEscan™ selectivity screen
# as §5, §6
# [31] = test system: MERTK; test: KINOMEscan; conditions: 50000 nM
# Procedure: KINOMEscan™ selectivity screen
# as §5, §6
# [32] = test system: KIT; test: KINOMEscan; conditions: 50000 nM
# Procedure: KINOMEscan™ selectivity screen
# as §7, §6
smiles,measurement,setting,value
"Oc1cc(-c2ccccc2)c2ccccc2n1 [G7, 4-phenylquinolin-2(1H)-one]",phosphorylation of FoxO1,[1],decreased
same,phosphorylation of GSK-3β,[2],decreased
same,inhibition of confluent NIH/3T3 cells,[3],considerably less inhibition
same,Percent Control,[4],79%
same,Percent Control,[5],100%
same,Percent Control,[6],100%
same,Percent Control,[7],100%
same,Percent Control,[8],98%
same,Percent Control,[9],98%
same,Percent Control,[10],96%
same,Percent Control,[11],92%
same,Percent Control,[12],90%
same,Percent Control,[13],82%
same,Percent Control,[14],81%
same,Percent Control,[15],81%
same,Percent Control,[16],81%
same,Percent Control,[17],80%
same,Percent Control,[18],78%
same,Percent Control,[19],74%
same,Percent Control,[20],71%
same,Percent Control,[21],70%
same,Percent Control,[22],69%
same,Percent Control,[23],68%
same,Percent Control,[24],65%
same,Percent Control,[25],65%
same,Percent Control,[26],64%
same,Percent Control,[27],61%
same,Percent Control,[28],59%
same,Percent Control,[29],54%
same,Percent Control,[30],51%
same,Percent Control,[31],42%
same,Percent Control,[32],26%
